Experimental data published in US9440973B2, “Pyrido[3,4-d]pyrimidine-2,4(1H,3H)-dione derivatives” (Hydra Biosciences, Inc., priority 2014, dated 2016).
pIC50: −log10 of the molar value.

How the values were obtained:
TRPC5 channel [1] = biological target: T1, TRPC5 channel (Homo sapiens, UniProt Q9UL62); test: High throughput screening assay: Fluo4 cell-based fluorescence Ca2+ influx assay; conditions: HEK293/TREx cells inducibly expressing TRPC5, inhibition of [Ca2+]i rise after high-Ca2+ Ringer (14 mM Ca2+), triplicate, 0.027-20 μM
T1 construct: expressed in transfected cells; host or cells: HEK293/TREx (Invitrogen), tetracycline-induced
T1 sequence (Q9UL62 1-973): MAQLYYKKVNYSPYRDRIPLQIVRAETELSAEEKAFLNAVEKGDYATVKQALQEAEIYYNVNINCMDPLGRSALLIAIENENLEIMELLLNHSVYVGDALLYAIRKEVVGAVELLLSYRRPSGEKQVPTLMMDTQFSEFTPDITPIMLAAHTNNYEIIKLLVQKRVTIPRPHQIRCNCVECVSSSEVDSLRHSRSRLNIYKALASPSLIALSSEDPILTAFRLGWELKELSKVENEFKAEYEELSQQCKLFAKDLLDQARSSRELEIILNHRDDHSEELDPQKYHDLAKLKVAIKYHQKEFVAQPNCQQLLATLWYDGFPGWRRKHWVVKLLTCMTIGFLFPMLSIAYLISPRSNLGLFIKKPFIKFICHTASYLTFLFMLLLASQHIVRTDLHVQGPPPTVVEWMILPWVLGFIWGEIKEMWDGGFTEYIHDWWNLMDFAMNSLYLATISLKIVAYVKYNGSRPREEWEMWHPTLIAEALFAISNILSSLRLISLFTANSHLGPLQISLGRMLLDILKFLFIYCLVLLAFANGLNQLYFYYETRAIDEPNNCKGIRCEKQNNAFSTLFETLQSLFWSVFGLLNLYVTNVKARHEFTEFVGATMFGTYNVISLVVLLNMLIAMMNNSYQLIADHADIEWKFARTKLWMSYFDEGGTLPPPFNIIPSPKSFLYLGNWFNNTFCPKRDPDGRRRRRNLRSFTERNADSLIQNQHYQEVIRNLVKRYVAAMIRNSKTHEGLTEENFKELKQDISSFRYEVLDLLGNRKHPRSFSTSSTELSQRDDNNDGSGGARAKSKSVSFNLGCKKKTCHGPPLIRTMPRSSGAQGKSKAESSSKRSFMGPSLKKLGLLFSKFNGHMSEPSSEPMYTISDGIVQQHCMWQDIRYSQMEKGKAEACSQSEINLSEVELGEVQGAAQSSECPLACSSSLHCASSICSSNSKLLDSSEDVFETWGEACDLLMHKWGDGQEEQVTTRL
Excerpt: The assay depended on detection of the rise in intracellular Ca2+ concentration ([Ca2+]i) following channel activation in cells inducibly expressing the TRPC5 channel. Ca2+ rise was quantified with the use of fluorescent Ca2+ indicators that were loaded into cells and thereafter indicated the [Ca2+]i Ca2+ influx followed activation of the TRPC5 channel. Compounds inhibiting the [Ca2+]i rise were considered hits for further investigation.
The commercially available HEK293/TREx line (Invitrogen) was stably transfected with a TRPC5 construct and screened by conventional calcium imaging to find clones with TRPC5 expression following stimulation with 1 μg/ml tetracycline. These cells were maintained in the growth medium recommended by the manufacturer supplemented with 100 μg/ml hygromycin to promote retention of the TRPC5 construct. After growing to near confluency, cells were plated at a density of ˜35,000 cells/well in 384 well CellBind plates (Corning) in the presence of 1 μg/ml tetracycline, and allowed to grow for 20-30 hrs. A nearly confluent monolayer resulted. Cells were then loaded with Ca2+ dye: Fura-2/AM or Fluo4/AM was added to the wells to a final concentration of 4 μM or 0.5 μM, respectively, and incubated for 80 min or 60 min, respectively, at room temperature. Supernatant was then removed from the cells by inverting plates with a sharp flick, and 25 μl Hank's Balanced Salt Solution (HBSS; 0.185 g/l D-glucose, 0.9767 g/l MgSO4 (anhydrous), 0.4 g/l KCl, 0.06 g/l KH2PO4 (anhydrous), 0.35 g/l NaHCO3, 8.0 g/l NaCl, and 0.04788 g/l Na2HPO4 (anhydrous); pH 7.4) was then added to each well. Following ˜0.5 hour for recovery from loading, cells were assayed using the Hamamatsu FDSS 6000 system, which permitted illumination alternately at 340 nm and 380 nm for Fura-2 experiments, or at 485 nm for Fluo4 experiments. Frames were acquired at a rate of 0.2 Hz. During the assay, the plates were continuously vortexed, with pipette mixing of wells following addition of each reagent. For the screening assay, 26 μl of a diluted compound stock (at 50 μM) was added to each well for 2 minutes following the collection of a short (4 frame) baseline. 13 μl 62 mM high-Ca2+ Ringer solution (4.17 ml of normal ringer (with 2 mM Ca2+) plus 5.83 ml of isotonic calcium ringer (105 mM Ca2+; in this ringer all sodium has been replaced with calcium)) was then added to each well, achieving a final concentration of 14 mM Ca2+ and 10 μM test compound. Data was collected for ˜3 minutes following addition of high Ca2+ Ringer, where the fluorescent intensity (for Fluo4) and the F340/F380 ratio (for Fura-2) were proportional to the [Ca2+]i Negative controls consisted of HEK293/TREx TRPC5 cells exposed to high Ca2+ solution, but no compound. Positive control conditions consisted of addition of 2-APB, a promiscuous blocker of TRPC5 and other channels, to columns 23 and 24 of the plates, to a final concentration of 200 μM. These controls defined a screening window, and “hits” were defined as those compounds inhibiting the fluorescence response by at least 40%. IC50 values were determined for compounds defined as “hits.” The Fluo4 cell-based fluorescence assay was used to determine the intracellular Ca2+ concentration in the presence of varying drug concentration. Final concentrations of compounds tested were 20 μM, 6.667 μM, 2.222 μM, 0.741 μM, 0.247 μM, 0.082 μM, and 0.027 μM. Compounds were tested in triplicate at all concentrations. Standard software was used to fit IC50 curves. A value of NF was assigned when no IC50 curves could not be fit.
Additionally or alternatively, efficacy can be represented as % inhibition in the presence (of a given concentration of compound) versus the absence of compound or in comparison to a control compound. For example, efficacy can be represented as % inhibition of ion flux in the presence versus the absence of compound.

TRPC5 channel [2] = biological target: T1, TRPC5 channel; test: Whole-cell patch clamp experiments on TRPC5 current; format: cell-based; conditions: TRPC5-expressing HEK293 TREx cells, current activated by LaCl3, holding potential −40 mV, currents quantified at −80 mV and +80 mV
Excerpt: Patch clamp experiments permit the detection of currents through the TRPC5 channel in the cell line described above. In normal whole-cell patch clamp recordings, a glass electrode is brought into contact with a single cell and a high-resistance (gigaohm) seal is established with the cell membrane. The membrane is then ruptured to achieve the whole-cell configuration, permitting control of the voltage of the cell membrane and measurement of currents flowing across the membrane using the amplifier attached to the electrode and resulting in the replacement of cytoplasm with the pipette solution. A perfusion system permits control of the extracellular solution, including the addition of blockers and activators of the current. The current can be activated by including 1.4 μM free Ca^2+ in the pipette (intracellular) solution, and 80 μM LaCl3 in the extracellular solution.
TRPC5 cells were induced 20-48 hours, removed from growth plates, and replated at low density (to attain good single-cell physical separation) on glass coverslips for measurement. In some cases, cells were grown in low density overnight on glass coverslips. […] Currents elicited were quantified at −80 mV and +80 mV. The internal solution consisted of 140 mM cesium aspartate, 10 mM HEDTA, 2 mM CaCl2, 2.27 mM MgCl2 and 10 mM HEPES, pH 7.2, with 1,400 nM calculated free Ca^2+. […]

| pIC50 (TRPC5 channel [1]) | pIC50 (TRPC5 channel [2]) | SMILES |
| --- | --- | --- |
| 5.01 | – | CC(C)CCc1c(-c2ccccc2C(C)C)ncc2c1c(=O)n(CCCO)c(=O)n2C [Compound 50, 3-(3-hydroxypropyl)-5-isopentyl-6-(2-isopropylphenyl)-1-methylpyrido[3,4-d]pyrimidine-2,4(1H,3H)-dione] |
| 5.79 | – | Cn1c(=O)n(CCCO)c(=O)c2c(Cc3ccc(Cl)cc3)c(-c3ccc(Cl)cc3)ncc21 [Compound 47, 5-(4-chlorobenzyl)-6-(4-chlorophenyl)-3-(3-hydroxypropyl)-1-methylpyrido[3,4-d]pyrimidine-2,4(1H,3H)-dione] |
| 5.80 | – | CC(C)CCc1c(-c2ccc(Cl)cc2)ncc2c1c(=O)n(CCCO)c(=O)n2C [Compound 48, 6-(4-chlorophenyl)-3-(3-hydroxypropyl)-5-isopentyl-1-methylpyrido[3,4-d]pyrimidine-2,4(1H,3H)-dione] |
| 6.71 | – | Cn1c(=O)n(CCCO)c(=O)c2c(Cc3ccccc3)c(-c3cccc(OC(F)(F)F)c3)ncc21 [Compound 53, 5-benzyl-3-(3-hydroxypropyl)-1-methyl-6-(3-(trifluoromethoxy)phenyl)pyrido[3,4-d]pyrimidine-2,4(1H,3H)-dione] |
| 5.63 | 7.41 | CC(C)c1ccccc1-c1ncc2c(c1Cc1ccc(Cl)cc1)c(=O)n(CCCO)c(=O)n2C [Compound 49, 5-(4-chlorobenzyl)-3-(3-hydroxypropyl)-6-(2-isopropylphenyl)-1-methylpyrido[3,4-d]pyrimidine-2,4(1H,3H)-dione] |
| 5.38 | – | CC(C)CCc1c(-c2cccc(Cl)c2)ncc2c1c(=O)n(CCCO)c(=O)n2C [Compound 52, 6-(3-chlorophenyl)-3-(3-hydroxypropyl)-5-isopentyl-1-methylpyrido[3,4-d]pyrimidine-2,4(1H,3H)-dione] |
| 5.37 | – | CC(C)c1ccccc1-c1cc2c(=O)n(CCCO)c(=O)n(C)c2cn1 [Compound 46, 3-(3-hydroxypropyl)-6-(2-isopropylphenyl)-1-methylpyrido[3,4-d]pyrimidine-2,4(1H,3H)-dione] |
| 5.05 | – | Cn1c(=O)n(CCCO)c(=O)c2c(Cc3ccc(Cl)cc3)c(Oc3cccc(Cl)c3)ncc21 [Compound 51, 5-(4-chlorobenzyl)-6-(3-chlorophenoxy)-3-(3-hydroxypropyl)-1-methylpyrido[3,4-d]pyrimidine-2,4(1H,3H)-dione] |
